Experimental data reported in paper PMC9851200, “Multiparameter phenotypic screening for endogenous TFEB and TFE3 translocation identifies novel chemical series modulating lysosome function” (Autophagy, 2022).

Assays:
Format in all cases: binding
[1] = molecular target: kinases (KINOMEscan panel) (Homo sapiens, UniProt O43353); conditions: RIPK2; NEW KINOMEscan
[2] = molecular target: kinases (KINOMEscan panel) (Homo sapiens, UniProt P00533); conditions: kinase EGFR; NEW KINOMEscan
[3] = molecular target: kinases (KINOMEscan panel) (Homo sapiens, UniProt Q00532); conditions: CDKL1; NEW KINOMEscan
[4] = molecular target: T1, kinases (KINOMEscan panel) (Homo sapiens, UniProt Q9UPZ9); conditions: CILK1; NEW KINOMEscan
T1 sequence (Q9UPZ9 1-632): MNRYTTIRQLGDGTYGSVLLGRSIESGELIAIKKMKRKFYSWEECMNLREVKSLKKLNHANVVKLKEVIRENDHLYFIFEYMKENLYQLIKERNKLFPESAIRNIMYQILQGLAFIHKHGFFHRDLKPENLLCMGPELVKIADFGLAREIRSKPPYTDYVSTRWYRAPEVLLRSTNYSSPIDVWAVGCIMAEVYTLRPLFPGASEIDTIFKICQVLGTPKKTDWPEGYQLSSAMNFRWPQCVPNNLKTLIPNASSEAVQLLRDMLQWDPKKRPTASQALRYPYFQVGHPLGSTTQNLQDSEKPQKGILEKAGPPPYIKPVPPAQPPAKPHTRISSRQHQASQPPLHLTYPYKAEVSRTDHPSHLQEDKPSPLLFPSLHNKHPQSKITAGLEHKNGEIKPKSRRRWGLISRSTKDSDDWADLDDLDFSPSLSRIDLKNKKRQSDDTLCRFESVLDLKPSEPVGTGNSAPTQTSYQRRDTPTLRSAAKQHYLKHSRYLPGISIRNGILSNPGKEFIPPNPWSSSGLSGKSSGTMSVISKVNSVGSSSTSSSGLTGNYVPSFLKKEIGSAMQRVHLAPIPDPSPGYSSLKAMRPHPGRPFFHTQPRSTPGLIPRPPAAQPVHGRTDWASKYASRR

[5] = molecular target: kinases (KINOMEscan panel) (Homo sapiens, UniProt Q16512); conditions: NEW KINOMEscan
kinases (KINOMEscan panel) (Homo sapiens, UniProt Q16512), sequence (Q16512 whole entry): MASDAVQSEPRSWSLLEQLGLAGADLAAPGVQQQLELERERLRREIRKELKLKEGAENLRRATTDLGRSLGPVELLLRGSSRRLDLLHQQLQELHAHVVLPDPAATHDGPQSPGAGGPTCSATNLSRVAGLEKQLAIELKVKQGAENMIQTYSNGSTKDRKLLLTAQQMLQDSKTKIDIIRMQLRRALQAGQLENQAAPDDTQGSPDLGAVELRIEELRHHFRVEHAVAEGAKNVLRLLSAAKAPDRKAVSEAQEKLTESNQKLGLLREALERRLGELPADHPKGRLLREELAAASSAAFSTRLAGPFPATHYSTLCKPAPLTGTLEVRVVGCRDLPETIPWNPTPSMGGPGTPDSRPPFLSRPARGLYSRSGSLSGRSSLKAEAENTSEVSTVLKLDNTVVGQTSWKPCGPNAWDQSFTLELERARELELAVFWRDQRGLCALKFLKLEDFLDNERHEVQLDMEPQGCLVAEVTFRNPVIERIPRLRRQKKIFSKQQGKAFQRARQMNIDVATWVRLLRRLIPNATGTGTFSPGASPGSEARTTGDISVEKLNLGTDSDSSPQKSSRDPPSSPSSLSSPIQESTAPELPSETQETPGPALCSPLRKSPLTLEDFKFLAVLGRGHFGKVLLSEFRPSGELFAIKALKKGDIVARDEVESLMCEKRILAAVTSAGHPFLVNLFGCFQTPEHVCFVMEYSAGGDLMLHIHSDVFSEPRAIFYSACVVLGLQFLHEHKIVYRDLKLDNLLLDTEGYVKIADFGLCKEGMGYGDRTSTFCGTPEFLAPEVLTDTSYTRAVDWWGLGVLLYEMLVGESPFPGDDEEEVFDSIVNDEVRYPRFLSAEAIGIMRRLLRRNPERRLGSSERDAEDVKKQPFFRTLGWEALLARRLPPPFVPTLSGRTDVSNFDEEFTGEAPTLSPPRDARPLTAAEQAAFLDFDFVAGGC

[6] = molecular target: T2, kinases (KINOMEscan panel) (Homo sapiens, UniProt O14730); conditions: RIOK3; NEW KINOMEscan
T2 sequence (O14730 1-519): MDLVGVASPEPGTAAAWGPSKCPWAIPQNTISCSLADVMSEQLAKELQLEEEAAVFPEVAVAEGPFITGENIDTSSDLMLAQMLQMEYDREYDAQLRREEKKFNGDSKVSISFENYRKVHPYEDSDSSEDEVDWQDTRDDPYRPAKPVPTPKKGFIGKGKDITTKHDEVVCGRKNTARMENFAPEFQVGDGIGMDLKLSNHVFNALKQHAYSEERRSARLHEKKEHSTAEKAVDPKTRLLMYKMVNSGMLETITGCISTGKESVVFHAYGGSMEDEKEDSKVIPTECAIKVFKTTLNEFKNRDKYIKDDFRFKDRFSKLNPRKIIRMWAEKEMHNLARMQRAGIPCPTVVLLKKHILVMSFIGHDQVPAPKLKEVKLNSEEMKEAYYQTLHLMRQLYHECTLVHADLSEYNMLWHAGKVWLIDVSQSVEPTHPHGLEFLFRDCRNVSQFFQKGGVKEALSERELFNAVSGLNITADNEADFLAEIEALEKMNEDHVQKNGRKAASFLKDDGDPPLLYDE

[7] = molecular target: kinases (KINOMEscan panel) (Homo sapiens, UniProt Q9UKE5); conditions: TNIK; NEW KINOMEscan
[8] = molecular target: T3, kinases (KINOMEscan panel) (Homo sapiens, UniProt P35626); conditions: GRK3; NEW KINOMEscan
T3 sequence (P35626 1-688): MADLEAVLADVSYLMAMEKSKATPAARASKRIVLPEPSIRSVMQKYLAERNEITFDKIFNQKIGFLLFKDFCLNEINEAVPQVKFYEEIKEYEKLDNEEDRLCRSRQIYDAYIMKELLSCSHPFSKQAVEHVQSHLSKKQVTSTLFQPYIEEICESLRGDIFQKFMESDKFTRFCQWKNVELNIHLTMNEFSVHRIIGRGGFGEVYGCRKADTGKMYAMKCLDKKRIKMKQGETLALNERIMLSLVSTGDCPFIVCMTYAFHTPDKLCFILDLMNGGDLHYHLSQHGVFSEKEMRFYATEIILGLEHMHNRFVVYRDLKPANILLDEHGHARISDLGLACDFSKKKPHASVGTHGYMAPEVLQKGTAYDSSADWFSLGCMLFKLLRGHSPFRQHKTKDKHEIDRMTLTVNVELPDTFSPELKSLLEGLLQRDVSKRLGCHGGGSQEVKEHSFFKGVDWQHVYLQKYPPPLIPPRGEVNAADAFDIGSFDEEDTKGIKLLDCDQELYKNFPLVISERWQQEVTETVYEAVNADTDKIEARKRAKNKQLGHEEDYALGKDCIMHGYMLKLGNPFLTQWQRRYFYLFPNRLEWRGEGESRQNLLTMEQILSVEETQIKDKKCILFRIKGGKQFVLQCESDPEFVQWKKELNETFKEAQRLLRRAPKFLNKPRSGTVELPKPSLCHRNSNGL

[9] = molecular target: kinases (KINOMEscan panel) (Homo sapiens, UniProt P49336); conditions: CDK8; NEW KINOMEscan
kinases (KINOMEscan panel) (Homo sapiens, UniProt P49336), sequence (P49336 whole entry): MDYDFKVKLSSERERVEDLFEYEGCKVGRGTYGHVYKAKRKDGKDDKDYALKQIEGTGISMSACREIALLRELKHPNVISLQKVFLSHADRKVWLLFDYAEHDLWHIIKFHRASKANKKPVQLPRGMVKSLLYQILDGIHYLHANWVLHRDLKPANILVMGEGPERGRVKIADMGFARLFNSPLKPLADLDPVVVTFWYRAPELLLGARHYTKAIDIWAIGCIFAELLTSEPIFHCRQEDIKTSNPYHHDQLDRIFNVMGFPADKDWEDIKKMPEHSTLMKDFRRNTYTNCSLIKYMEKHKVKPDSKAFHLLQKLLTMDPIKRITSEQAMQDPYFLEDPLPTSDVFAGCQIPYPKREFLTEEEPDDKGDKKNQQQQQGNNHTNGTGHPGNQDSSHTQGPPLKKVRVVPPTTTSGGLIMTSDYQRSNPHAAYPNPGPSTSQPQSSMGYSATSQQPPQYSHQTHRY

[10] = molecular target: kinases (KINOMEscan panel) (Homo sapiens, UniProt Q5S007); conditions: NEW KINOMEscan
kinases (KINOMEscan panel) (Homo sapiens, UniProt Q5S007), sequence (Q5S007 whole entry): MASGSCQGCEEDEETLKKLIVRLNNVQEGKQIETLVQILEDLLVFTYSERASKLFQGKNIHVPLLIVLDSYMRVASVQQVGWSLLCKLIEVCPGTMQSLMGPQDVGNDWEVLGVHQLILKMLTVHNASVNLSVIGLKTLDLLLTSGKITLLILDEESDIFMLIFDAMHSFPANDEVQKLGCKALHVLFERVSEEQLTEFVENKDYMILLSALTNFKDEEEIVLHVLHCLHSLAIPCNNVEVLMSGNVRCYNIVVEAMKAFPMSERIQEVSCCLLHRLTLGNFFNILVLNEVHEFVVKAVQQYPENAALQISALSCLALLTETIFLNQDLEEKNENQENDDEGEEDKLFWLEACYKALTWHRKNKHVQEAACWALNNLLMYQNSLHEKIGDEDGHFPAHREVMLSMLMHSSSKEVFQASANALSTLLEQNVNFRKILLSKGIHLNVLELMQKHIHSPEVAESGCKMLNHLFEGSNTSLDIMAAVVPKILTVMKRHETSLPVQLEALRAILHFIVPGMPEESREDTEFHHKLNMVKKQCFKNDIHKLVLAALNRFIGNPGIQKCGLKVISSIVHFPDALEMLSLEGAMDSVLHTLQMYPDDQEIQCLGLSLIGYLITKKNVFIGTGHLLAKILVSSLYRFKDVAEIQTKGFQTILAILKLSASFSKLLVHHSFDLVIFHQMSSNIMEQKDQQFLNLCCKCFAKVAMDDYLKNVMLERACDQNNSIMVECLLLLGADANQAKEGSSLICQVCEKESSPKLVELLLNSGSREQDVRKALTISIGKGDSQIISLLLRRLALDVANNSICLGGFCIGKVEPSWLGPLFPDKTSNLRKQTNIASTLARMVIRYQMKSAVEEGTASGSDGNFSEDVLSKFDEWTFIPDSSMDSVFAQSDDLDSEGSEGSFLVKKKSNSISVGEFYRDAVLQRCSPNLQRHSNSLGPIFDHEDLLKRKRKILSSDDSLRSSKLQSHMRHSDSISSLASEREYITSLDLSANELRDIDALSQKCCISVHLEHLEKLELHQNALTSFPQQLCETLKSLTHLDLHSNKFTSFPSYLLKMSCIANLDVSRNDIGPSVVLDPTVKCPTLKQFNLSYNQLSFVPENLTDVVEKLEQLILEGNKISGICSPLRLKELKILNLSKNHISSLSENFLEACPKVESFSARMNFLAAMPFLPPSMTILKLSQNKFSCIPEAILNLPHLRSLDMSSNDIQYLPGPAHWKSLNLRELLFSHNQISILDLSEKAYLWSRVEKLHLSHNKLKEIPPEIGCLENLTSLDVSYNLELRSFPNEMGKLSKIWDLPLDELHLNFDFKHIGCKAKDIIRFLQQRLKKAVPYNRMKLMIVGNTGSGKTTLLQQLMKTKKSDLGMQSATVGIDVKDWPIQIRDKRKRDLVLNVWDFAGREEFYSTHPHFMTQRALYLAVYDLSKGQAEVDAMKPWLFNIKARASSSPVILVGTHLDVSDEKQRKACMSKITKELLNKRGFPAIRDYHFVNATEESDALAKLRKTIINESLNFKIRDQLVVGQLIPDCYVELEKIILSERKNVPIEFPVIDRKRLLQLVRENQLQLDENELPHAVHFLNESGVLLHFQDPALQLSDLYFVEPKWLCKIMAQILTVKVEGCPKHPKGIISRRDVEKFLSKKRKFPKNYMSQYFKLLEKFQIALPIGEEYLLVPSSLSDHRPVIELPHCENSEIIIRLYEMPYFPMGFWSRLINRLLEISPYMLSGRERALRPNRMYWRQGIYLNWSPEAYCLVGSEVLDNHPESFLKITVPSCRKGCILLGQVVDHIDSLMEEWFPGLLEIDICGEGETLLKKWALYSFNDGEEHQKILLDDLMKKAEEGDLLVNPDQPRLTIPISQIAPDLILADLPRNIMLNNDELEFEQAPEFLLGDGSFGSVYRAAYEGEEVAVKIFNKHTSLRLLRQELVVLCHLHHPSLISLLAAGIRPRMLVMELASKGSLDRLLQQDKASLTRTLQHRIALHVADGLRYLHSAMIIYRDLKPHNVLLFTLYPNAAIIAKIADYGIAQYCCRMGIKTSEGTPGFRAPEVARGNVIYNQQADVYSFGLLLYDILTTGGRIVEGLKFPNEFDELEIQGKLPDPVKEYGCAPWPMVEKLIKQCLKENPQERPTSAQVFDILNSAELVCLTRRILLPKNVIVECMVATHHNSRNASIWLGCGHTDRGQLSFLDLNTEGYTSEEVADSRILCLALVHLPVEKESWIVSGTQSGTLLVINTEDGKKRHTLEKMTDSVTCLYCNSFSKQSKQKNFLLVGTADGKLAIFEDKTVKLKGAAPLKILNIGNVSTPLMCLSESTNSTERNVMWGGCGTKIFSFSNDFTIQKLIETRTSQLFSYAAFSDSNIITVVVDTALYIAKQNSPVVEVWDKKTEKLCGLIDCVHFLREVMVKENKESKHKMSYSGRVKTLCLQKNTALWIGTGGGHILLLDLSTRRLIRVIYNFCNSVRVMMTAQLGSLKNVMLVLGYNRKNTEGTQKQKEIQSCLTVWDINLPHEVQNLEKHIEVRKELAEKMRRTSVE

kinases (KINOMEscan panel) (Homo sapiens, UniProt P00533), sequence (P00533 25-1210): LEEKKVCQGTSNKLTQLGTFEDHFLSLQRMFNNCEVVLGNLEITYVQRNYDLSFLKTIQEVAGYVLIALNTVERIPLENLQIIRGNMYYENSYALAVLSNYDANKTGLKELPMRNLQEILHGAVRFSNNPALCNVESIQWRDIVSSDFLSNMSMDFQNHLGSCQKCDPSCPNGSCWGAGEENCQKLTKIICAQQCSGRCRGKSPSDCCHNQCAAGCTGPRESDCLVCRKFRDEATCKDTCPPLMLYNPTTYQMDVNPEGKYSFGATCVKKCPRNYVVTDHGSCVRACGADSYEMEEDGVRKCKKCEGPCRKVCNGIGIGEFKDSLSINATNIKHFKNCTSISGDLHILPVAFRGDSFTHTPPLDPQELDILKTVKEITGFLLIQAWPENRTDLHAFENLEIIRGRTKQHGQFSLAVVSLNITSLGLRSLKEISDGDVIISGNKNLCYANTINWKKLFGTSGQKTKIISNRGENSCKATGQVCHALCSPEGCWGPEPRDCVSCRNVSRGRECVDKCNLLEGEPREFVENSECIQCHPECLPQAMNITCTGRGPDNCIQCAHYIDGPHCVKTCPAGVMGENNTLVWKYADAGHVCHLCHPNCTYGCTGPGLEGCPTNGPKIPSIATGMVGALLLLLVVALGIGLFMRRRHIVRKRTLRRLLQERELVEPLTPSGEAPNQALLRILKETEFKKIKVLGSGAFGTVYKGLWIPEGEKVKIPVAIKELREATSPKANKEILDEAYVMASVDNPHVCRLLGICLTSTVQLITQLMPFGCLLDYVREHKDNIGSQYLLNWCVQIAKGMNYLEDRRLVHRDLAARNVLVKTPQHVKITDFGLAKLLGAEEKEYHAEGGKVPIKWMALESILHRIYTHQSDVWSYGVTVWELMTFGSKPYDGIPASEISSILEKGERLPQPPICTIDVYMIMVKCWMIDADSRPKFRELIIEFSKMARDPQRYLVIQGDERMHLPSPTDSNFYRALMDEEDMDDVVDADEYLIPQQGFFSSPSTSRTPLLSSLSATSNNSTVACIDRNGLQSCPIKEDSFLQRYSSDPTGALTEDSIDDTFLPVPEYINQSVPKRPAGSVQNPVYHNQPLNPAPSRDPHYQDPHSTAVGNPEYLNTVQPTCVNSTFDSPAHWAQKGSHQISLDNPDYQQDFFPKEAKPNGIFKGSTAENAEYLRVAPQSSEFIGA

Compound | KINOMEscan RIPK2 [1] | KINOMEscan EGFR [2] | KINOMEscan CDKL1 [3] | KINOMEscan CILK1 [4] | KINOMEscan PKN1 [5] | KINOMEscan RIOK3 [6] | KINOMEscan TNIK [7] | KINOMEscan GRK3 [8] | KINOMEscan CDK8 [9] | KINOMEscan LRRK2 [10]
Cc1cccc(-c2nc(Nc3ccc4nn(C)cc4c3)c3ccccc3n2)n1 [NK167] | 3 | 0 | 44 | 0 | 0 | 0 | 0 | 0 | 19 | 21
Cc1cccc(-c2nc(N(C)c3ccc4ncsc4c3)c3ccccc3n2)n1 [NK-161] | 11 | 1 | 36 | 0 | 0 | 0 | 0 | 25 | 12 | 27
